Test results published in BindingDB's records for doi:10.1016/s0167-0115(98)00049-4 (Uppsala University, 1998).
Non-standard residues stand in square brackets, D forms with d. Residues, ends and D or L forms follow the SMILES beside them. Ahx = NCCCCCC(=O)O

target: T1, Neuropeptide Y receptor type 2 (Cavia porcellus, UniProt Q9Z2D5)
T1 sequence (Q9Z2D5 whole entry): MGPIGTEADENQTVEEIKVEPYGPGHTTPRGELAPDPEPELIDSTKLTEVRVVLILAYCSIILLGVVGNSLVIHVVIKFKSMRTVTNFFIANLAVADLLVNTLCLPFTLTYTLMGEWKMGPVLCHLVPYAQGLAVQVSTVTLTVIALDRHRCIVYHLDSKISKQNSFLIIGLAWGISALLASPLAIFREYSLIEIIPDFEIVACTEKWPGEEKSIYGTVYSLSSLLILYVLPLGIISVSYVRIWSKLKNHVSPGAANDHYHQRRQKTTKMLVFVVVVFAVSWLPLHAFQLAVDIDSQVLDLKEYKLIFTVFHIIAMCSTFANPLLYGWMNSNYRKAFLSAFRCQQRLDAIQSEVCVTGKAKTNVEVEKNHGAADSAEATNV

First: CC[C@H](C)[C@H](NC(=O)[C@H](Cc1ccc(O)cc1)NC(=O)[C@H](Cc1cnc[nH]1)NC(=O)[C@H](CCCNC(=N)N)NC(=O)CCCCCNC(=O)[C@H](CCCCN)NC(=O)[C@H](CO)NC(=O)[C@@H]1CCCN1C(=O)[C@@H](N)Cc1ccc(O)cc1)C(=O)N[C@@H](CC(N)=O)C(=O)N[C@@H](CC(C)C)C(=O)N[C@H](C(=O)N[C@H](C(=O)N[C@@H](CCCNC(=N)N)C(=O)N[C@@H](CCC(N)=O)C(=O)N[C@@H](CCCNC(=N)N)C(=O)N[C@@H](Cc1ccc(O)cc1)C(N)=O)[C@@H](C)O)[C@@H](C)CC [NPY5-24, Ahx] (H-YPSK[Ahx]RHYINLITRQRY-NH2)
Second: CC[C@H](C)[C@H](NC(=O)[C@H](Cc1ccc(O)cc1)NC(=O)[C@H](Cc1c[nH]cn1)NC(=O)[C@H](CCCNC(=N)N)NC(=O)[C@H](CC(C)C)NC(=O)[C@H](C)NC(=O)[C@H](CO)NC(=O)[C@H](Cc1ccc(O)cc1)NC(=O)CCCCCNC(=O)[C@H](CC(N)=O)NC(=O)[C@H](CC(=O)O)NC(=O)[C@@H]1CCCN1C(=O)[C@H](CCCCN)NC(=O)[C@H](CO)NC(=O)[C@@H]1CCCN1C(=O)[C@@H](N)Cc1ccc(O)cc1)C(=O)N[C@@H](CC(N)=O)C(=O)N[C@@H](CC(C)C)C(=O)N[C@H](C(=O)N[C@H](C(=O)N[C@@H](CCCNC(=N)N)C(=O)N[C@@H](CCC(N)=O)C(=O)N[C@@H](CCCNC(=N)N)C(=O)N[C@@H](Cc1ccc(O)cc1)C(N)=O)[C@@H](C)O)[C@@H](C)CC [NPY8-20, Ahx] (H-YPSKPDN[Ahx]YSALRHYINLITRQRY-NH2)
The Ki of the first is 1.5-fold higher: 0.181 nM for the first, 0.117 nM for the second.

Compared with `CC[C@H](C)[C@H](NC(=O)[C@H](Cc1ccc(O)cc1)NC(=O)[C@H](Cc1cnc[nH]1)NC(=O)[C@H](CCCNC(=N)N)NC(=O)[C@H](CC(C)C)NC(=O)[C@H](C)NC(=O)[C@H](CO)NC(=O)[C@H](Cc1ccc(O)cc1)NC(=O)CCCCCNC(=O)[C@H](CC(N)=O)NC(=O)[C@H](CC(=O)O)NC(=O)[C@@H]1CCCN1C(=O)[C@H](CCCCN)NC(=O)[C@H](CO)NC(=O)[C@@H]1CCCN1C(=O)[C@@H](N)Cc1ccc(O)cc1)C(=O)N[C@@H](CC(N)=O)C(=O)N[C@@H](CC(C)C)C(=O)N[C@H](C(=O)N[C@H](C(=O)N[C@@H](CCCNC(=N)N)C(=O)N1CCC[C@H]1C(=O)N[C@@H](CCCNC(=N)N)C(=O)N[C@@H](Cc1ccc(O)cc1)C(N)=O)[C@@H](C)O)[C@@H](C)CC` [NPY8-20, Pro34, Ahx] (H-YPSKPDN[Ahx]YSALRHYINLITRPRY-NH2), `CC[C@H](C)[C@H](NC(=O)[C@H](Cc1ccc(O)cc1)NC(=O)[C@H](Cc1cnc[nH]1)NC(=O)[C@H](CCCN=C(N)N)NC(=O)[C@H](CC(C)C)NC(=O)[C@H](C)NC(=O)[C@@H](N)CO)C(=O)N[C@@H](CC(N)=O)C(=O)N[C@@H](CC(C)C)C(=O)N[C@H](C(=O)N[C@H](C(=O)N[C@@H](CCCN=C(N)N)C(=O)N[C@@H](CCC(N)=O)C(=O)N[C@@H](CCCN=C(N)N)C(=O)N[C@@H](Cc1ccc(O)cc1)C(N)=O)[C@@H](C)O)[C@@H](C)CC` [NPY22-36, rat, human] is 630-fold lower in Ki: 85.3 nM for the first, 0.136 nM for the second.

Going from “H-APLEPEYPGDNATPEQMAQYAAELRRYINMLTRPRY-NH2 [CAS_59763-91-6]” to “H-INPIYRLRY-NH2 [NPY 28-36, [P30, Y32, L34]]”, the Ki falls from 1000 nM to 295 nM (3.4-fold). The second binds more tightly here.
